Usually IC50 stands for the concentration needed to halve the response being measured.

The source of these data is patent US20190388425A1, “SUBSTITUTED IMIDAZOPYRIDINPYRIMIDINES” (Bayer Pharma Aktiengesellschaft, priority 2017, published 2019).

SMILES strings stand for the structures.

This experiment addresses T1, human full-length MKNK1 (Homo sapiens, UniProt Q9BUB5, T385D).
T1 construct: GST (N); purchased Carna Biosciences 02-145; host or cells: insect cells (baculovirus expression system)
The experiment can be described thus: MKNK1 kinase high ATP assay (TR-FRET). It counts as biochemical. Particulars: TR-FRET, 2 mM ATP (high ATP), 15 min preincubation with enzyme, 30 min reaction at 22° C.; read-out: MKNK1 IC50. An outline of the steps: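 Full-length human MKNK1 (T385D) preincubated 15 min at 22 °C with compound in HEPES pH 7.5/MgCl2/DTT buffer; reaction with 2 mM ATP (final) and 0.06 μM biotinylated peptide (final), 30 min at 22 °C.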
A general note: Time-resolved FRET reads energy transfer from a long-lived donor to a nearby acceptor.

T1 sequence (Q9BUB5 1-424 isoform Q9BUB5-2 T344D): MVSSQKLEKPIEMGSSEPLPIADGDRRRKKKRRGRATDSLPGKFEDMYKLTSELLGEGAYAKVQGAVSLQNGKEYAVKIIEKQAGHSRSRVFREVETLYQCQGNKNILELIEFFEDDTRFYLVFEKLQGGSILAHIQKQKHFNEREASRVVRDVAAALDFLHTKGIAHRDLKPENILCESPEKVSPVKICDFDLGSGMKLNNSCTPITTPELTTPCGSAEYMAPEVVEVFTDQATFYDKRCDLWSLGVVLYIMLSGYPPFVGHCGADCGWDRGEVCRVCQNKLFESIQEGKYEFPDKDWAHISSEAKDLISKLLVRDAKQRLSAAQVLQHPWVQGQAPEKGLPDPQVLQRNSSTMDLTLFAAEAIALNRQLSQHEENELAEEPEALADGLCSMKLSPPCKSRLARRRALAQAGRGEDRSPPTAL

Take `Cc1cc(Nc2ncnc3sc4c(c23)CC[C@H](C(=O)O)C4)c(=O)n2c1C(=O)NC21CCCCC1` [Example 1, (7S)-4-[(8′-Methyl-1′,5′-dioxo-1′,5′-dihydro-2′H-spiro[cyclohexane-1,3′-imidazo[1,5-a]pyridin]-6′-yl)amino]-5,6,7,8-tetrahydro[1]benzothieno[2,3-d]pyrimidine-7-carboxylic acid]: the IC50 was 9 nM.

In the case of `Cc1cc(Nc2ncnc3sc4c(c23)CC[C@H](C(=O)N2CCC2)C4)c(=O)n2c1C(=O)NC21CCCC1` [Example 38, 6′-{[(7S)-7-(Azetidin-1-ylcarbonyl)-5,6,7,8-tetrahydro[1]benzothieno[2,3-d]pyrimidin-4-yl]amino}-8′-methyl-2′H-spiro[cyclopentane-1,3′-imidazo[1,5-a]pyridine]-1′,5′-dione], the IC50 stood at 3.1 nM.

Take `Cc1cc(Nc2ncnc3sc4c(c23)CC[C@H](C(N)=O)C4)c(=O)n2c1C(=O)NC21CCCCC1` [Example 17, (7S)-4-[(8′-Methyl-1′,5′-dioxo-1′,5′-dihydro-2′H-spiro[cyclohexane-1,3′-imidazo[1,5-a]pyridin]-6′-yl)amino]-5,6,7,8-tetrahydro[1]benzothieno[2,3-d]pyrimidine-7-carboxamide]: the IC50 stood at 0.5 nM.

Consider `Cc1cc(Nc2ncnc3sc4c(c23)CC[C@H](C(=O)N2CC(C#N)C2)C4)c(=O)n2c1C(=O)NC21CCCCC1` [Example 5, 1-({(7S)-4-[(8′-Methyl-1′,5′-dioxo-1′,5′-dihydro-2′H-spiro[cyclohexane-1,3′-imidazo[1,5-a]pyridin]-6′-yl)amino]-5,6,7,8-tetrahydro[1]benzothieno[2,3-d]pyrimidin-7-yl}carbonyl)azetidine-3-carbonitrile], for which the IC50 is 1.1 nM.

Regarding `C[C@@H]1COCCN1C(=O)[C@H]1CCc2c(sc3ncnc(Nc4cc(Cl)c5n(c4=O)C4(CSC4)NC5=O)c23)C1` [Example 106, 8-Chloro-6-({(7S)-7-[(3R)-3-methylmorpholine-4-carbonyl]-5,6,7,8-tetrahydro[1]benzothieno[2,3-d]pyrimidin-4-yl}amino)-2H-spiro[imidazo[1,5-a]pyridine-3,3′-thietane]-1,5-dione], the IC50 stood at 0.3 nM.

Consider `Cc1cc(Nc2ncnc3sc4c(c23)CC[C@H](C(=O)N(C)C)C4)c(=O)n2c1C(=O)NC21CCC(F)(F)CC1` [Example 52, (7S)-4-[(4,4-Difluoro-8′-methyl-1′,5′-dioxo-1′,5′-dihydro-2′H-spiro[cyclohexane-1,3′-imidazo[1,5-a]pyridin]-6′-yl)amino]-N,N-dimethyl-5,6,7,8-tetrahydro[1]benzothieno[2,3-d]pyrimidine-7-carboxamide], for which the IC50 was found to be 0.6 nM.

For the compound `O=C1NC2(CCCCC2)n2c1c(Cl)cc(Nc1ncnc3sc4c(c13)CC[C@H](C(=O)N1CCC1)C4)c2=O` [Example 76, 6′-{[(7S)-7-(Azetidin-1-ylcarbonyl)-5,6,7,8-tetrahydro[1]benzothieno[2,3-d]pyrimidin-4-yl]amino}-8′-chloro-2′H-spiro[cyclohexane-1,3′-imidazo[1,5-a]pyridine]-1′,5′-dione], the IC50 is 0.9 nM.

Take `CN(C)C(=O)[C@H]1CCc2c(sc3ncnc(Nc4cc(Cl)c5n(c4=O)C(C)(C)NC5=O)c23)C1` [Example 111, (7S)-4-[(8-Chloro-3,3-dimethyl-1,5-dioxo-1,2,3,5-tetrahydroimidazo[1,5-a]pyridin-6-yl)amino]-N,N-dimethyl-5,6,7,8-tetrahydro[1]benzothieno[2,3-d]pyrimidine-7-carboxamide]: the IC50 stood at 0.3 nM.

As to `CN(C)[C@H]1CCN(C(=O)[C@H]2CCc3c(sc4ncnc(Nc5cc(Cl)c6n(c5=O)C5(CSC5)NC6=O)c34)C2)C1` [Example 105, 8-Chloro-6-({(7S)-7-[(3S)-3-(dimethylamino)pyrrolidine-1-carbonyl]-5,6,7,8-tetrahydro[1]benzothieno[2,3-d]pyrimidin-4-yl}amino)-2H-spiro[imidazo[1,5-a]pyridine-3,3′-thietane]-1,5-dione], the IC50 was 0.1 nM.

On to `CN(C)C(=O)[C@H]1CCc2c(sc3ncnc(Nc4cc(Cl)c5n(c4=O)C4(CSC4)NC5=O)c23)C1` [Example 102, (7S)-4-[(8-Chloro-1,5-dioxo-1,5-dihydro-2H-spiro[imidazo[1,5-a]pyridine-3,3′-thietan]-6-yl)amino]-N,N-dimethyl-5,6,7,8-tetrahydro[1]benzothieno[2,3-d]pyrimidine-7-carboxamide], for which the IC50 is 0.2 nM.

On to `Cc1cc(Nc2ncnc3sc4c(c23)CC[C@H](C(=O)O)C4)c(=O)n2c1C(=O)NC21CCCC1` [Example 34, (7S)-4-[(8′-Methyl-1′,5′-dioxo-1′,5′-dihydro-2′H-spiro[cyclopentane-1,3′-imidazo[1,5-a]pyridin]-6′-yl)amino]-5,6,7,8-tetrahydro[1]benzothieno[2,3-d]pyrimidine-7-carboxylic acid], for which the IC50 was 4.7 nM.

Take `O=C1NC2(CCCCC2)n2c1c(Cl)cc(Nc1ncnc3sc4c(c13)CC[C@H](C(=O)O)C4)c2=O` [Example 73, (7S)-4-[(8′-Chloro-1′,5′-dioxo-1′,5′-dihydro-2′H-spiro[cyclohexane-1,3′-imidazo[1,5-a]pyridin]-6′-yl)amino]-5,6,7,8-tetrahydro[1]benzothieno[2,3-d]pyrimidine-7-carboxylic acid]: the IC50 was found to be 1.6 nM.

In the case of `Cc1cc(Nc2ncnc3sc4c(c23)CC[C@H](C(=O)N2CCN(C)[C@H](C)C2)C4)c(=O)n2c1C(=O)NC21CSC1` [Example 50, 6-{[(7S)-7-{[(3R)-3,4-dimethylpiperazin-1-yl]carbonyl}-5,6,7,8-tetrahydro[1]benzothieno[2,3-d]pyrimidin-4-yl]amino}-8-methyl-2H-spiro[imidazo[1,5-a]pyridine-3,3′-thietane]-1,5-dione], the concentration for half-maximal inhibition (IC50) is 0.3 nM.

On to `Cc1cc(Nc2ncnc3sc4c(c23)CC[C@H](C(=O)N2CC(N(C)C)C2)C4)c(=O)n2c1C(=O)NC21CCC(F)(F)CC1` [Example 55, 6′-{[(7S)-7-{[3-(Dimethylamino)azetidin-1-yl]carbonyl}-5,6,7,8-tetrahydro[1]benzothieno[2,3-d]pyrimidin-4-yl]amino}-4,4-difluoro-8′-methyl-2′H-spiro[cyclohexane-1,3′-imidazo[1,5-a]pyridine]-1′,5′-dione], for which the IC50 stood at 0.6 nM.

`Cc1cc(Nc2ncnc3sc4c(c23)CC[C@H](C(=O)N(C)C)C4)c(=O)n2c1C(=O)NC21CSC1` [Example 45, (7S)—N,N-Dimethyl-4-[(8-methyl-1,5-dioxo-1,5-dihydro-2H-spiro[imidazo[1,5-a]pyridine-3,3′-thietan]-6-yl)amino]-5,6,7,8-tetrahydro[1]benzothieno[2,3-d]pyrimidine-7-carboxamide]: the IC50 amounted to 0.6 nM.

For the compound `NC(=O)[C@H]1CCc2c(sc3ncnc(Nc4cc(Cl)c5n(c4=O)C4(CCCCC4)NC5=O)c23)C1` [Example 74, (7S)-4-[(8′-Chloro-1′,5′-dioxo-1′,5′-dihydro-2′H-spiro[cyclohexane-1,3′-imidazo[1,5-a]pyridin]-6′-yl)amino]-5,6,7,8-tetrahydro[1]benzothieno[2,3-d]pyrimidine-7-carboxamide], the IC50 amounted to 0.9 nM.

Consider `O=C1NC2(CCCC2)n2c1c(Cl)cc(Nc1ncnc3sc4c(c13)CC[C@H](C(=O)N1C[C@H]3C[C@@H]1CO3)C4)c2=O` [Example 92, 8′-Chloro-6′-({(7S)-7-[(1R,4R)-2-oxa-5-azabicyclo[2.2.1]heptane-5-carbonyl]-5,6,7,8-tetrahydro[1]benzothieno[2,3-d]pyrimidin-4-yl}amino)-2′H-spiro[cyclopentane-1,3′-imidazo[1,5-a]pyridine]-1′,5′-dione], for which the IC50 is 1 nM.

`Cc1cc(Nc2ncnc3sc4c(c23)CC[C@H](C(=O)N2C[C@H]3C[C@@H]2CO3)C4)c(=O)n2c1C(=O)NC21CCCCC1` [Example 8, 8′-Methyl-6′-({(7S)-7-[(1R,4R)-2-oxa-5-azabicyclo[2.2.1]hept-5-ylcarbonyl]-5,6,7,8-tetrahydro[1]benzothieno[2,3-d]pyrimidin-4-yl}amino)-2′H-spiro[cyclohexane-1,3′-imidazo[1,5-a]pyridine]-1′,5′-dione]: the IC50 came to 0.6 nM.

For `Cc1cc(Nc2ncnc3sc4c(c23)CC[C@H](C(=O)N2CCC2)C4)c(=O)n2c1C(=O)NC2(C)C` [Example 28, 6-{[(7S)-7-(Azetidin-1-ylcarbonyl)-5,6,7,8-tetrahydro[1]benzothieno[2,3-d]pyrimidin-4-yl]amino}-3,3,8-trimethyl-2,3-dihydroimidazo[1,5-a]pyridine-1,5-dione], the half-inhibitory concentration (IC50) is 1 nM.

For the compound `N#CC1CN(C(=O)[C@H]2CCc3c(sc4ncnc(Nc5cc(Cl)c6n(c5=O)C5(CSC5)NC6=O)c34)C2)C1` [Example 104, 1-{(7S)-4-[(8-Chloro-1,5-dioxo-1,5-dihydro-2H-spiro[imidazo[1,5-a]pyridine-3,3′-thietan]-6-yl)amino]-5,6,7,8-tetrahydro[1]benzothieno[2,3-d]pyrimidine-7-carbonyl}azetidine-3-carbonitrile], the IC50 is 0.2 nM.

With `NC(=O)[C@H]1CCc2c(sc3ncnc(Nc4cc(Cl)c5n(c4=O)C4(CCC4)NC5=O)c23)C1` [Example 94, (7S)-4-[(8′-Chloro-1′,5′-dioxo-1′,5′-dihydro-2′H-spiro[cyclobutane-1,3′-imidazo[1,5-a]pyridin]-6′-yl)amino]-5,6,7,8-tetrahydro[1]benzothieno[2,3-d]pyrimidine-7-carboxamide], the IC50 amounted to 0.2 nM.

As to `O=C1NC2(CSC2)n2c1c(Cl)cc(Nc1ncnc3sc4c(c13)CC[C@H](C(=O)N1CCC1)C4)c2=O` [Example 103, 6-{[(7S)-7-(Azetidine-1-carbonyl)-5,6,7,8-tetrahydro[1]benzothieno[2,3-d]pyrimidin-4-yl]amino}-8-chloro-2H-spiro[imidazo[1,5-a]pyridine-3,3′-thietane]-1,5-dione], the IC50 worked out at 0.2 nM.
